Drawing on the Kinase Knowledgebase extract (Sharma et al. 2016), this text covers IC50 for four molecules.

The target in one assay is PIK3CB (Human) (UniProt P42338). Briefly: Inhibition of PIK3CB Kinase Activity.
The target in another assay is PIK3CG (human) (UniProt P48736). Briefly: Inhibition of PIK3CG Kinase Activity.
The target in the next assay is PIK3CA (human) (UniProt P42336). Briefly: Inhibition of PIK3CA Kinase Activity.
In another assay the target is PIK3CD (Human) (UniProt O00329). Kind of assay: Inhibition of PIK3CD Kinase Activity.
PIK3CD (Human), sequence (O00329 whole entry, looked up): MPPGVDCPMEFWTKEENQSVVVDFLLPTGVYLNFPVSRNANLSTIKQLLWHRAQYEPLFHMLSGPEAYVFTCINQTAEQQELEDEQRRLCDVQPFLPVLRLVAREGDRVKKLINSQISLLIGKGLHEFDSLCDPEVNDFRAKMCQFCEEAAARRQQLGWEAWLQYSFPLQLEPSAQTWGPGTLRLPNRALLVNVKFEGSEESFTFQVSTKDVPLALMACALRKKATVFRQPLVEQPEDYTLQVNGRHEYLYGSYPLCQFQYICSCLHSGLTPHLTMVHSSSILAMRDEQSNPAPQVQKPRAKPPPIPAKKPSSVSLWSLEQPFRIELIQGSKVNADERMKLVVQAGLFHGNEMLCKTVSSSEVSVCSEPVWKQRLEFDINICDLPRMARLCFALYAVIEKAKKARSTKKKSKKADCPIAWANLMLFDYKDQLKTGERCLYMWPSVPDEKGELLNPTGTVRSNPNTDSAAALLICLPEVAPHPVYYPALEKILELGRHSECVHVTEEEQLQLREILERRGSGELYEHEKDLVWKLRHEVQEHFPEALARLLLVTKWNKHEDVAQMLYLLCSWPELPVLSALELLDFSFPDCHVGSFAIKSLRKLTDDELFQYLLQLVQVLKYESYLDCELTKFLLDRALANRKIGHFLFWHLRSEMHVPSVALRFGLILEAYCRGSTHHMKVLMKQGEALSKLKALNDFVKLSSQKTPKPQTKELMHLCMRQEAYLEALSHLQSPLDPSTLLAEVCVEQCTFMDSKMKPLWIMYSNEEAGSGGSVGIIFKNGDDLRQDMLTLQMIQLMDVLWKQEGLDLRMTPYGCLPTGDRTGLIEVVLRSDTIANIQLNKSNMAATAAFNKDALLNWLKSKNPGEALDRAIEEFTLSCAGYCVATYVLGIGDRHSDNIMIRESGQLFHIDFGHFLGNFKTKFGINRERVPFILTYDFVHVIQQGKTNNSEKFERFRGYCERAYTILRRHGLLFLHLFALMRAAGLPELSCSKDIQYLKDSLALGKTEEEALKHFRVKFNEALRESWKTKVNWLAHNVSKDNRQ

Molecules are shown by their SMILES.

As a reminder, the IC50 is the concentration that gives 50% inhibition. A low value points to higher potency.

PIK3CA (human), sequence (P42336 whole entry, looked up): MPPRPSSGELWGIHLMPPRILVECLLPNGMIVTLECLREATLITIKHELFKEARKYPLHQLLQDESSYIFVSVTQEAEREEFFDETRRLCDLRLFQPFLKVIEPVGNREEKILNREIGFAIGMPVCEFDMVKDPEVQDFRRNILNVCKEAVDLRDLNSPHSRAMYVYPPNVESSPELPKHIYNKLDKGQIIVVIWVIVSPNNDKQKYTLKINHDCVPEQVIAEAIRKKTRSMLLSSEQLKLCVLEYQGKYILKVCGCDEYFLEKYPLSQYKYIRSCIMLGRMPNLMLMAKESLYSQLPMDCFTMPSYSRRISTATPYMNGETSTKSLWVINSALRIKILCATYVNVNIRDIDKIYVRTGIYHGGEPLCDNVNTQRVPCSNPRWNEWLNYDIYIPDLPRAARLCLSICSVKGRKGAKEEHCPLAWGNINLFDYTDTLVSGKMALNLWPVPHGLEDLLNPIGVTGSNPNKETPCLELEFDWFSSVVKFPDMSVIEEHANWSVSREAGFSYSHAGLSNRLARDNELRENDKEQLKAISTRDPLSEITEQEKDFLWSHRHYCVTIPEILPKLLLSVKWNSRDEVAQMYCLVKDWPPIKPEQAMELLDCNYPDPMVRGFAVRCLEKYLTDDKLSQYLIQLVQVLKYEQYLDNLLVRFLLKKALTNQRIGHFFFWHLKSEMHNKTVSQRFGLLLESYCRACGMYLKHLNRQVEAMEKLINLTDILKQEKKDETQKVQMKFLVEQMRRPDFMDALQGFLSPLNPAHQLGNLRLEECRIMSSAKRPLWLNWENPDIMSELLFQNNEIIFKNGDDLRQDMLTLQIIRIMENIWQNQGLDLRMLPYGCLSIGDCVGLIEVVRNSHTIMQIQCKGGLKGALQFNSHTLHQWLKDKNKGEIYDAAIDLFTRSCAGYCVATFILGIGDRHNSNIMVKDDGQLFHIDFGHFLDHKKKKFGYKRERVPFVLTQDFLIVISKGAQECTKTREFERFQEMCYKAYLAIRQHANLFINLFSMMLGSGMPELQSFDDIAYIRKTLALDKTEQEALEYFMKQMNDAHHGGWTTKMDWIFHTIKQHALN
PIK3CB (Human), sequence (P42338 whole entry, looked up): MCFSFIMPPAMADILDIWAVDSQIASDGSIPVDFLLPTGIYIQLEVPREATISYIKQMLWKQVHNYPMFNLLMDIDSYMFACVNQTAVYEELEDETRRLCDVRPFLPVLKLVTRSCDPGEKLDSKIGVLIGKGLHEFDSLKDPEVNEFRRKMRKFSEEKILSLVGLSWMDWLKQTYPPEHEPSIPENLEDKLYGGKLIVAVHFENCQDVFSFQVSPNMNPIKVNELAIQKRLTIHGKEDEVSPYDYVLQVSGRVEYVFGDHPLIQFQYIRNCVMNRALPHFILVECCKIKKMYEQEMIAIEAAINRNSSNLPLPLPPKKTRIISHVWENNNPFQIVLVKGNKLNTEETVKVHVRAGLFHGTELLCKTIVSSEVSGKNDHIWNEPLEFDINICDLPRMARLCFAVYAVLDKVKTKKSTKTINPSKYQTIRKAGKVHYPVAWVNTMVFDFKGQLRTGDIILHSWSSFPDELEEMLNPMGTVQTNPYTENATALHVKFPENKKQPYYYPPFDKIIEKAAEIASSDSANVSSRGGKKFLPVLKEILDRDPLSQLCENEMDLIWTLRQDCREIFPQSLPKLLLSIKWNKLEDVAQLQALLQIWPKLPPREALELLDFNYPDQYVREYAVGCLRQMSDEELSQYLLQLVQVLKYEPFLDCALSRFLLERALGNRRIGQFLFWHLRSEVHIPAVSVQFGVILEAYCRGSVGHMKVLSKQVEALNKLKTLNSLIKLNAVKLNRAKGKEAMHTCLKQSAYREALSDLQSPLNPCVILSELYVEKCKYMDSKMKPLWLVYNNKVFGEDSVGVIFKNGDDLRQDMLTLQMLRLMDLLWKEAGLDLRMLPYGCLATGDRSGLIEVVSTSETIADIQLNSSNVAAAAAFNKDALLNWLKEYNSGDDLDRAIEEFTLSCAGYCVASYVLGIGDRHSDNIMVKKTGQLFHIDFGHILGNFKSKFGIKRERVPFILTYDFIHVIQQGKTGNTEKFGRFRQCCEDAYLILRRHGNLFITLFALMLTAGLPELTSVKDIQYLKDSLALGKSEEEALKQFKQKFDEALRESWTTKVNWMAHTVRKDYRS
PIK3CG (human), sequence (P48736 whole entry, looked up): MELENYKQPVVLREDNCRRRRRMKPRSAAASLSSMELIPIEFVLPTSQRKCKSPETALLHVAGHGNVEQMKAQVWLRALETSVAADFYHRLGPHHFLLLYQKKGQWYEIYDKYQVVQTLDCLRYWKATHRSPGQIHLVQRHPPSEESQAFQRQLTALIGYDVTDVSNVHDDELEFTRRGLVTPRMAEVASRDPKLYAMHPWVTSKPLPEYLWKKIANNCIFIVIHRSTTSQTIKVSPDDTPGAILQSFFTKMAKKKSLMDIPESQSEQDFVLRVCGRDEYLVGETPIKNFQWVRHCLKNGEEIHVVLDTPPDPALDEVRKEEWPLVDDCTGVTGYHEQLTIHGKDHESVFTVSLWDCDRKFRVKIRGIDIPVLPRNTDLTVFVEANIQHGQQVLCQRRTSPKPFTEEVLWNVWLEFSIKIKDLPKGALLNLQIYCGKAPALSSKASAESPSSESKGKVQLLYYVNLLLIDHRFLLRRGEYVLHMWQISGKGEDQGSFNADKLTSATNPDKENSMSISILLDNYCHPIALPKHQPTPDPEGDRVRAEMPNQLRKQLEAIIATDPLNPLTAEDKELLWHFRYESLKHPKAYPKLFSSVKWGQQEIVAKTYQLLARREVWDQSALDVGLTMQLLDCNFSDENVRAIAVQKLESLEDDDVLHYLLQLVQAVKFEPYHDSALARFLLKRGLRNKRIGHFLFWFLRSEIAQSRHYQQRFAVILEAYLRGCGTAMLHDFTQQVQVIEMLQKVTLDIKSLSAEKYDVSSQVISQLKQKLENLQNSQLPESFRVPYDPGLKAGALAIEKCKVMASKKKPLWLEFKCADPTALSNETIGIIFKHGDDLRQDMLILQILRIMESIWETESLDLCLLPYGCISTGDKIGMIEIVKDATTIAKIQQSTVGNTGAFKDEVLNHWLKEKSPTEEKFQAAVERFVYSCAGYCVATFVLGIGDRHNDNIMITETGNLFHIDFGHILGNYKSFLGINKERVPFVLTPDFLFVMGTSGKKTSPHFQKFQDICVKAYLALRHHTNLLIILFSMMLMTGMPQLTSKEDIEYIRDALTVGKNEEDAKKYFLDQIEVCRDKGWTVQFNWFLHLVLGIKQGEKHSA

For the molecule `Cc1cc(NCc2ccccc2)c2nc(N3CCOCC3)cc(=O)n2c1`, the half-inhibitory concentration (IC50) at PIK3CB (Human) was 50 nM; against PIK3CG (human) it was > 10000 nM; at PIK3CA (human), 50 nM.

In the case of `Cc1cc(F)ccc1Oc1cccc2c(=O)cc(N3CCOCC3)[nH]c12`, the IC50 against PIK3CB (Human) and on PIK3CA (human) was 20 nM in each case.

Take `O=c1c(O)c(-c2ccc(O)c(O)c2)oc2cc(O)cc(O)c12`: on PIK3CA (human), the 50% inhibitory concentration (IC50) stood at 3800 nM.

Consider `O=c1c2c(Cl)cccc2nc(CSc2ncnc3[nH]cnc23)n1-c1ccccc1-c1ccccc1`, for which the 50% inhibitory concentration (IC50) was 50 nM on PIK3CD (Human), > 2000 nM on PIK3CB (Human), > 2000 nM on PIK3CG (human) and > 2000 nM against PIK3CA (human).
